# Measurements: PubChem BioAssay AID290 (DTP/NCI, 2004)
# “And” between values parts separate entries of the source, which are not always exact repeats. Equal entries are not always repeated. Results filed as inconclusive are left out.
# System: mice, P1798 lymphosarcoma sc, survival or tumor weight T/C
# Assay: NCI In Vivo Anticancer Drug Screen. Data for tumor model P1798 Lymphosarcoma (subcutaneous) in unknown mice
# Procedure: The antitumor activity of compounds was measured in mice bearing transplantable tumors. Survival or tumor size were measured and the results are expressed as the measurement made in the treated group (T) divided by the measurement made in the vehicle treated control group (C). The tumor model used in this assay is P1798 Lymphosarcoma (subcutaneous) in unknown mice
# [1] = endpoint: mean tumor weight, dose: 31.0 mg/kg/injection, schedule: Q01DX010 (ip), vehicle: carboxymethylcellulose (CMC), higher = larger tumour
structure (smiles),measurement,setting,value
CCN(CC)CCNc1ccc(C)c2sc3ccccc3c(=O)c12,T/C,"endpoint: mean tumor weight, dose: 3.1 mg/kg/injection, schedule: Q01DX010 (ip), vehicle: methylcellulose (MC), higher = larger tumour",108 % of control
same,T/C,"endpoint: mean tumor weight, dose: 5.0 mg/kg/injection, schedule: Q01DX010 (ip), vehicle: methylcellulose (MC), higher = larger tumour",99 % of control
same,T/C,"endpoint: mean tumor weight, dose: 10.0 mg/kg/injection, schedule: Q01DX010 (ip), vehicle: methylcellulose (MC), higher = larger tumour",68 % of control
same,T/C,"endpoint: mean tumor weight, dose: 20.0 mg/kg/injection, schedule: Q01DX010 (ip), vehicle: methylcellulose (MC), higher = larger tumour",104 % of control
C[C@]12CCC(=O)C=C1CC[C@H]1[C@@H]3CC[C@](O)(C(=O)CO)[C@@]3(C)C[C@H](O)[C@@]12F,T/C,"endpoint: mean tumor weight, dose: 0.5 mg/kg/injection, schedule: Q01DX011 (sc), vehicle: steriod suspending solution, higher = larger tumour",76 % of control
same,T/C,"endpoint: mean tumor weight, dose: 1.0 mg/kg/injection, schedule: Q01DX011 (sc), vehicle: steriod suspending solution, higher = larger tumour",36 % of control
same,T/C,"endpoint: mean tumor weight, dose: 2.0 mg/kg/injection, schedule: Q01DX011 (sc), vehicle: steriod suspending solution, higher = larger tumour",61 % of control
same,T/C,"endpoint: mean tumor weight, dose: 2.5 mg/kg/injection, schedule: Q01DX015 (ip), vehicle: carboxymethylcellulose (CMC), higher = larger tumour",103 % of control
same,T/C,"endpoint: mean tumor weight, dose: 3.5 mg/kg/injection, schedule: Q01DX011 (sc), vehicle: steriod suspending solution, higher = larger tumour",64 % of control
same,T/C,"endpoint: mean tumor weight, dose: 5.0 mg/kg/injection, schedule: Q01DX015 (ip), vehicle: carboxymethylcellulose (CMC), higher = larger tumour",105 % of control
NC(Cc1ccc(N(CCCl)CCCl)cc1)C(=O)O (stereo unspecified),T/C,"endpoint: mean tumor weight, dose: 0.5 mg/kg/injection, schedule: Q01DX010 (ip), vehicle: saline, higher = larger tumour",86 % of control
same,T/C,"endpoint: mean tumor weight, dose: 0.63 mg/kg/injection, schedule: Q01DX010 (ip), vehicle: carboxymethylcellulose (CMC), higher = larger tumour",117 % of control
same,T/C,"endpoint: mean tumor weight, dose: 1.0 mg/kg/injection, schedule: Q01DX010 (ip), vehicle: saline, higher = larger tumour",67 % of control
same,T/C,"endpoint: mean tumor weight, dose: 1.25 mg/kg/injection, schedule: Q01DX010 (ip), vehicle: carboxymethylcellulose (CMC), higher = larger tumour",110 % of control
same,T/C,"endpoint: mean tumor weight, dose: 1.25 mg/kg/injection, schedule: Q01DX010 (ip), vehicle: saline, higher = larger tumour",89 % of control
same,T/C,"endpoint: mean tumor weight, dose: 2.0 mg/kg/injection, schedule: Q01DX010 (ip), vehicle: saline, higher = larger tumour",77 % of control
same,T/C,"endpoint: mean tumor weight, dose: 4.0 mg/kg/injection, schedule: Q01DX010 (ip), vehicle: saline, higher = larger tumour",60 % of control
same,T/C,"endpoint: mean tumor weight, dose: 5.0 mg/kg/injection, schedule: Q01DX010 (ip), vehicle: carboxymethylcellulose (CMC), higher = larger tumour",40 % of control
same,T/C,"endpoint: mean tumor weight, dose: 5.0 mg/kg/injection, schedule: Q01DX010 (ip), vehicle: saline, higher = larger tumour",36 % of control
same,T/C,"endpoint: mean tumor weight, dose: 10.0 mg/kg/injection, schedule: Q01DX010 (ip), vehicle: saline, higher = larger tumour",5 % of control
OCC1OC(n2cnc3c(=S)nc[nH]c32)C(O)C1O (stereo unspecified),T/C,"endpoint: mean tumor weight, dose: 4.0 mg/kg/injection, schedule: Q01DX010 (ip), vehicle: carboxymethylcellulose (CMC), higher = larger tumour",115 % of control
same,T/C,"endpoint: mean tumor weight, dose: 8.0 mg/kg/injection, schedule: Q01DX010 (ip), vehicle: carboxymethylcellulose (CMC), higher = larger tumour",67 % of control
same,T/C,"endpoint: mean tumor weight, dose: 16.0 mg/kg/injection, schedule: Q01DX010 (ip), vehicle: carboxymethylcellulose (CMC), higher = larger tumour",45 % of control
same,T/C,[1],82 % of control
CCOC(N)=O,T/C,"endpoint: mean tumor weight, dose: 250.0 mg/kg/injection, schedule: Q01DX010 (ip), vehicle: saline, higher = larger tumour",70 % of control and 76 % of control
CCCSc1ncnc2nc[nH]c12,T/C,[1],84 % of control
same,T/C,"endpoint: mean tumor weight, dose: 62.0 mg/kg/injection, schedule: Q01DX010 (ip), vehicle: carboxymethylcellulose (CMC), higher = larger tumour",70 % of control
same,T/C,"endpoint: mean tumor weight, dose: 125.0 mg/kg/injection, schedule: Q01DX010 (ip), vehicle: carboxymethylcellulose (CMC), higher = larger tumour",51 % of control and 52 % of control
COc1cccc2c1C(=O)c1c(O)c3c(c(O)c1C2=O)C[C@@](O)(C(=O)CO)C[C@@H]3OC1CC(N)C(O)C(C)O1 (stereo partly specified),T/C,"endpoint: median survival time, dose: 0.25 mg/kg/injection, schedule: Q01DX010 (ip), vehicle: water, higher = longer survival",84 % of control
same,T/C,"endpoint: median survival time, dose: 0.5 mg/kg/injection, schedule: Q01DX010 (ip), vehicle: water, higher = longer survival",102 % of control
same,T/C,"endpoint: median survival time, dose: 1.0 mg/kg/injection, schedule: Q01DX010 (ip), vehicle: water, higher = longer survival",93 % of control
same,T/C,"endpoint: median survival time, dose: 1.0 mg/kg/injection, schedule: Q04DX007 (ip), vehicle: water, higher = longer survival",108 % of control
same,T/C,"endpoint: median survival time, dose: 2.0 mg/kg/injection, schedule: Q01DX010 (ip), vehicle: water, higher = longer survival",36 % of control
same,T/C,"endpoint: median survival time, dose: 2.0 mg/kg/injection, schedule: Q04DX007 (ip), vehicle: water, higher = longer survival",107 % of control
same,T/C,"endpoint: median survival time, dose: 4.0 mg/kg/injection, schedule: Q01DX010 (ip), vehicle: water, higher = longer survival",28 % of control
CC(C)=C(Br)CC[C@@H](C)[C@H]1CC[C@@]2(C)C3=C(CC[C@]12C)[C@@]1(C)CC[C@H](O)C(C)(C)[C@@H]1CC3,T/C,"endpoint: mean tumor weight, dose: 100.0 mg/kg/injection, schedule: Q01DX011 (sc), vehicle: steriod suspending solution, higher = larger tumour",151 % of control
same,T/C,"endpoint: mean tumor weight, dose: 200.0 mg/kg/injection, schedule: Q01DX011 (sc), vehicle: steriod suspending solution, higher = larger tumour",186 % of control
O=C(Nc1ccc(C2=NCCN2)cc1)c1ccc(C(=O)Nc2ccc(C3=NCCN3)cc2)cc1,T/C,"endpoint: mean tumor weight, dose: 8.0 mg/kg/injection, schedule: Q01DX010 (ip), vehicle: saline, higher = larger tumour",67 % of control
same,T/C,"endpoint: mean tumor weight, dose: 16.0 mg/kg/injection, schedule: Q01DX010 (ip), vehicle: saline, higher = larger tumour",65 % of control
same,T/C,"endpoint: mean tumor weight, dose: 32.0 mg/kg/injection, schedule: Q01DX010 (ip), vehicle: saline, higher = larger tumour",109 % of control
same,T/C,"endpoint: mean tumor weight, dose: 64.0 mg/kg/injection, schedule: Q01DX010 (ip), vehicle: saline, higher = larger tumour",49 % of control
